Measurements as given in patent US4240964A, “2-(O-Hydroxyphenyl)-pyrrole and process for its preparation” (BASF Aktiengesellschaft, priority 1978, dated 1980).
Where a name gives a salt, the structure may show the parent alone.

How the values were obtained:
[1] = system: isoproterenol-induced tachycardia (β1); test: β1-sympatholytic action: inhibition of isoproterenol-induced tachycardia in pithed rats; assay type: in vivo, rats (Sprague-Dawley, Rattus norvegicus); conditions: for ED50: Rattus norvegicus, 5 min, isoproterenol 0.1 ug/kg i.v. before and 5 minutes after test substance, read-out: β1-sympatholytic action ED 50% (dose which inhibits the isoproterenol-induced tachycardia by 50%); for β1-sympatholytic activity, times greater than propranolol: comparison with propranolol
Procedure: The β-sympatholytic action was tested on rats, in comparison with the known β-sympatholytic agent propranolol (1-isopropylamino)-1-naphthyloxy-2-propanol.HC1).
^1 Inhibition of isoproterenolinduced tachycardia in pithed rats.
Intravenous administration
^2 Dose which inhibits the isoproterenolinduced tachycardia by 50%

in vivo = conditions: mouse, ip
[2] = for Therapeutic range, absolute (LD 50 / ED 50%): LD 50 i.p. mice, ED 50% i.v. rats; for Therapeutic range (LD 50 / ED 50%), times greater than propranolol: comparison with propranolol; for Therapeutic range, relative (Propranolol = 1.00): relative to propranolol
Procedure: Isoproternol was administered before, and 5 minutes after, the intravenous administration of the test substances.

| SMILES | ED50 ([1]; intravenous, pithed rats) [mg/kg] | β1-sympatholytic activity, times greater than propranolol [1] [times] | LD50 at 24 h (in vivo) [mg/kg] | Therapeutic range, absolute (LD 50 / ED 50%) [2] | Therapeutic range (LD 50 / ED 50%), times greater than propranolol [2] [times] | Therapeutic range, relative (Propranolol = 1.00) [2] | R.A. (relative activity, Propranolol = 1.00), β1-sympatholytic action ([1]; intravenous, pithed rats, relative to propranolol) |
| --- | --- | --- | --- | --- | --- | --- | --- |
| CC(C)(C)NCC(O)COc1ccccc1-c1ccc[nH]1.O=C(O)/C=C/C(=O)O (stereo not shown) [Example II, 2-[2-(3-tert.-butylamino-2-hydroxypropoxy)-phenyl]-pyrrole fumarate] | 0.00227 | 5.6 | 165 | 767 | 7 | 6.91 | – |
| CC(C)NCC(O)COc1ccccc1-c1ccc[nH]1 (stereo not shown) [Example III, 2-[2-(3-isopropylamino-2-hydroxypropoxy)-phenyl]-pyrrole fumarate hemihydrate] | 0.004 | 3.2 | 97.2 | 452 | 4 | 4.07 | – |
| CC(C)NCC(O)COc1cccc2ccccc12 (stereo not shown) [Propranolol, reference compound] | – | – | – | – | – | – | 1.00 |
